Source: PubChem BioAssay AID1963448 (Molecular Pharmacology Branch, DTP, NCI, 2024)

Tested on: 616215-338-R-J1-PDC complex spheroid growth, % test/control
Test: Anticancer human tumor 616215-338-R-J1-PDC patient-derived colon adenocarcinoma cell line growth inhibition [Asc]
Conditions: for IC50: curve of first compound; for viability, T/C: stronger effect = lower value
In short: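 Tumor cells were grown as multicellular spheroids with stromal HUVEC and mesenchymal stem cells and treated singly or in combination. Concentrations fell in half-log steps from the clinical Cmax, or from 10 microM where none was known.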

[1] = second compound 0.03 µM, first compound 0.000316 µM
[2] = second compound 0.03 µM, first compound 0.001 µM
[3] = second compound 0.03 µM, first compound 0.00316 µM
[4] = second compound 0.03 µM, first compound 0.01 µM
[5] = second compound 0.03 µM, first compound 0.0316 µM
[6] = second compound 0.03 µM, first compound 0.1 µM
[7] = second compound 0.0949 µM, first compound 0.000316 µM
[8] = second compound 0.0949 µM, first compound 0.001 µM
[9] = second compound 0.0949 µM, first compound 0.00316 µM
[10] = second compound 0.0949 µM, first compound 0.01 µM
[11] = second compound 0.0949 µM, first compound 0.0316 µM
[12] = second compound 0.0949 µM, first compound 0.1 µM
[13] = second compound 0.3 µM, first compound 0.000316 µM
[14] = second compound 0.3 µM, first compound 0.001 µM
[15] = second compound 0.3 µM, first compound 0.00316 µM
[16] = second compound 0.3 µM, first compound 0.01 µM
[17] = second compound 0.3 µM, first compound 0.0316 µM
[18] = second compound 0.3 µM, first compound 0.1 µM
[19] = second compound 0.949 µM, first compound 0.000316 µM
[20] = second compound 0.949 µM, first compound 0.001 µM
[21] = second compound 0.949 µM, first compound 0.00316 µM
[22] = second compound 0.949 µM, first compound 0.01 µM
[23] = second compound 0.949 µM, first compound 0.0316 µM
[24] = second compound 0.949 µM, first compound 0.1 µM
[25] = second compound 3 µM, first compound 0.000316 µM
[26] = second compound 3 µM, first compound 0.001 µM
[27] = second compound 3 µM, first compound 0.00316 µM
[28] = second compound 3 µM, first compound 0.01 µM
[29] = second compound 3 µM, first compound 0.0316 µM
[30] = second compound 3 µM, first compound 0.1 µM
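Note: spheroids exposed to agents for seven days before readout.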
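Throughout, for viability, T/C: 100% = DMSO vehicle control viability.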

NC1CCC(NC2CC2c2ccccc2)CC1 (stereo not given) + CCN1C(C(=O)NC23CCC(C(=O)O)(CC2)CC3)C(c2cccc(Cl)c2F)C2(C(=O)Nc3cc(Cl)ccc32)C12CCCCC2
IC50 (second compound 0.03 µM): > 0.1 µM
IC50 (second compound 0.0949 µM): > 0.1 µM
IC50 (second compound 0.3 µM): > 0.1 µM
IC50 (second compound 0.949 µM): > 0.1 µM
IC50 (second compound 3 µM): > 0.1 µM
viability, T/C [1]: 106%
viability, T/C [2]: 98.2%
viability, T/C [3]: 99.7%
viability, T/C [4]: 104%
viability, T/C [5]: 100%
viability, T/C [6]: 103%
viability, T/C [7]: 95.5%
viability, T/C [8]: 100%
viability, T/C [9]: 91.3%
viability, T/C [10]: 91.7%
viability, T/C [11]: 93.8%
viability, T/C [12]: 95.2%
viability, T/C [13]: 68.9%
viability, T/C [14]: 67.6%
viability, T/C [15]: 73%
viability, T/C [16]: 65.9%
viability, T/C [17]: 62.4%
viability, T/C [18]: 68%
viability, T/C [19]: 73.4%
viability, T/C [20]: 72.2%
viability, T/C [21]: 83.7%
viability, T/C [22]: 71.7%
viability, T/C [23]: 70.1%
viability, T/C [24]: 72.7%
viability, T/C [25]: 54.6%
viability, T/C [26]: 58.9%
viability, T/C [27]: 58.2%
viability, T/C [28]: 62.9%
viability, T/C [29]: 51%
viability, T/C [30]: 54.3%

Cn1ncnc1[C@H]1c2n[nH]c(=O)c3cc(F)cc(c23)N[C@@H]1c1ccc(F)cc1 + CCN1C(C(=O)NC23CCC(C(=O)O)(CC2)CC3)C(c2cccc(Cl)c2F)C2(C(=O)Nc3cc(Cl)ccc32)C12CCCCC2
IC50 (second compound 0.03 µM): > 0.1 µM
IC50 (second compound 0.0949 µM): > 0.1 µM
IC50 (second compound 0.3 µM): > 0.1 µM
IC50 (second compound 0.949 µM): > 0.1 µM
IC50 (second compound 3 µM): 0.00314 µM
viability, T/C [1]: 107%
viability, T/C [2]: 103%
viability, T/C [3]: 97.8%
viability, T/C [4]: 105%
viability, T/C [5]: 92.3%
viability, T/C [6]: 85.5%
viability, T/C [7]: 99.2%
viability, T/C [8]: 95.5%
viability, T/C [9]: 89%
viability, T/C [10]: 85%
viability, T/C [11]: 81.5%
viability, T/C [12]: 75.6%
viability, T/C [13]: 69.6%
viability, T/C [14]: 70.9%
viability, T/C [15]: 67.6%
viability, T/C [16]: 56.7%
viability, T/C [17]: 58.9%
viability, T/C [18]: 61.8%
viability, T/C [19]: 65.3%
viability, T/C [20]: 66.5%
viability, T/C [21]: 67.4%
viability, T/C [22]: 56.8%
viability, T/C [23]: 57.2%
viability, T/C [24]: 61.3%
viability, T/C [25]: 50.2%
viability, T/C [26]: 55.5%
viability, T/C [27]: 49.9%
viability, T/C [28]: 46.1%
viability, T/C [29]: 47.5%
viability, T/C [30]: 48.3%
